Test results published in article PMC10006169, “A phase I trial of LXS196, a protein kinase C (PKC) inhibitor, for metastatic uveal melanoma” (British Journal of Cancer, 2023).
Values joined by “and” are separate entries in the source; they are usually repeats but may differ in a detail not shown here. Equal values may be shown once.

Test system: patients with MUM
Experiment: Adverse events suspected to be study drug related (NCI-CTCAE v4.03)
Assay type: in vivo, human
Details: for Alanine aminotransferase increased / Aspartate aminotransferase increased / Asthenia / Blood creatinine increased / Constipation / Diarrhoea / Dry skin / Fatigue / Hypotension / Nausea / Number of patients with ≥1 adverse event / Rash / Vomiting: suspected drug related
Description: Routine safety assessments, including laboratory assessments, physical examinations, vital signs and electrocardiograms (ECGs), were conducted at regular intervals throughout the study and more frequently as needed following patient assessment by the treating physician. Adverse events (AEs) were assessed continuously according to the National Cancer Institute Common Terminology Criteria for Adverse Events (NCI-CTCAE) v4.03.

[1] = 300 mg BID (RDE), n=18, All grades
[2] = 300 mg BID (RDE), n=18, Grade ≥3
[3] = All LXS196 BID patients, n=30, All grades
[4] = All LXS196 BID patients, n=30, Grade ≥3
[5] = All LXS196 patients, N=68, All grades
[6] = All LXS196 patients, N=68, Grade ≥3

CC1(N)CCN(c2cccnc2NC(=O)c2nc(-c3ncccc3C(F)(F)F)cnc2N)CC1 [LXS196]
Dry skin, all grades (All BID): 6 (20.0) n (%) | Dry skin, grade ≥3 (All BID): 0 n (%) | Fatigue, all grades (All BID): 4 (13.3) n (%) | Fatigue, grade ≥3 (All BID): 0 n (%) | Hypotension, all grades (All BID): 7 (23.3) n (%) | Nausea, all grades (All BID): 19 (63.3) n (%) | Nausea, grade ≥3 (All BID): 0 n (%) | Patients with ≥1 AE, all grades (All BID): 28 (93.3) n (%) | Patients with ≥1 AE, grade ≥3 (All BID): 6 (20.0) n (%) | Rash, all grades (All BID): 5 (16.7) n (%) | Rash, grade ≥3 (All BID): 0 n (%) | Vomiting, all grades (All BID): 9 (30.0) n (%) | Vomiting, grade ≥3 (All BID): 0 n (%) | ALT increased, all grades (All QD): 7 (18.4) n (%) | ALT increased, grade ≥3 (All QD): 2 (5.3) n (%) | AST increased, all grades (All QD): 5 (13.2) n (%) | AST increased, grade ≥3 (All QD): 2 (5.3) n (%) | Asthenia, all grades (All QD): 6 (15.8) n (%) | Asthenia, grade ≥3 (All QD): 0 n (%) | Blood creatinine increased, all grades (All QD): 2 (5.3) n (%) | Blood creatinine increased, grade ≥3 (All QD): 0 n (%) | Constipation, all grades (All QD): 4 (10.5) n (%) | Constipation, grade ≥3 (All QD): 0 n (%) | Diarrhoea, all grades (All QD): 15 (39.5) n (%) | Diarrhoea, grade ≥3 (All QD): 0 n (%) | Dry skin, all grades (All QD): 2 (5.3) n (%) | Dry skin, grade ≥3 (All QD): 0 n (%) | Fatigue, all grades (All QD): 10 (26.3) n (%) | Fatigue, grade ≥3 (All QD): 0 n (%) | Hypotension, all grades (All QD): 8 (21.1) n (%) | Nausea, all grades (All QD): 26 (68.4) n (%) | Nausea, grade ≥3 (All QD): 1 (2.6) n (%) | Patients with ≥1 AE, all grades (All QD): 35 (92.1) n (%) | Patients with ≥1 AE, grade ≥3 (All QD): 11 (28.9) n (%) | Rash, all grades (All QD): 3 (7.9) n (%) | Rash, grade ≥3 (All QD): 0 n (%) | Vomiting, all grades (All QD): 12 (31.6) n (%) | Vomiting, grade ≥3 (All QD): 1 (2.6) n (%) | ALT increased, all grades (All patients): 15 (22.1) n (%) | ALT increased, grade ≥3 (All patients): 4 (5.9) n (%) | AST increased, all grades (All patients): 11 (16.2) n (%) | AST increased, grade ≥3 (All patients): 4 (5.9) n (%) | Asthenia, all grades (All patients): 13 (19.1) n (%) | Asthenia, grade ≥3 (All patients): 0 n (%) | Blood creatinine increased, all grades (All patients): 7 (10.3) n (%) | Blood creatinine increased, grade ≥3 (All patients): 0 n (%) | Constipation, all grades (All patients): 7 (10.3) n (%) | Constipation, grade ≥3 (All patients): 0 n (%) | Diarrhoea, all grades (All patients): 31 (45.6) n (%) | Diarrhoea, grade ≥3 (All patients): 1 (1.5) n (%) | Dry skin, all grades (All patients): 8 (11.8) n (%) | Dry skin, grade ≥3 (All patients): 0 n (%) | Fatigue, all grades (All patients): 14 (20.6) n (%) | Fatigue, grade ≥3 (All patients): 0 n (%) | Hypotension, all grades (All patients): 15 (22.1) n (%) | Hypotension, grade ≥3 (All patients): 6 (8.8) n (%) | Nausea, all grades (All patients): 45 (66.2) n (%) | Nausea, grade ≥3 (All patients): 1 (1.5) n (%) | Patients with ≥1 AE, all grades (All patients): 63 (92.6%) n (%) and 63 (92.6) n (%) | Patients with ≥1 AE, grade ≥3 (All patients): 17 (25.0%) n (%) and 17 (25.0) n (%) | Rash, all grades (All patients): 8 (11.8) n (%) | Rash, grade ≥3 (All patients): 0 n (%) | Vomiting, all grades (All patients): 21 (30.9) n (%) | Vomiting, grade ≥3 (All patients): 1 (1.5) n (%) | Alanine aminotransferase increased (200 mg BID, n=6, All grades): 0 n (%) | Aspartate aminotransferase increased (200 mg BID, n=6, All grades): 0 n (%) | Asthenia (200 mg BID, n=6, All grades): 1 (16.7) n (%) | Blood creatinine increased (200 mg BID, n=6, All grades): 3 (50.0) n (%) | Constipation (200 mg BID, n=6, All grades): 0 n (%) | Diarrhoea (200 mg BID, n=6, All grades): 2 (33.3) n (%) | Dry skin (200 mg BID, n=6, All grades): 1 (16.7) n (%) | Fatigue (200 mg BID, n=6, All grades): 0 n (%) | Hypotension (200 mg BID, n=6, All grades): 0 n (%) | Nausea (200 mg BID, n=6, All grades): 2 (33.3) n (%) | Number of patients with ≥1 adverse event (200 mg BID, n=6, All grades): 5 (83.3) n (%) | Rash (200 mg BID, n=6, All grades): 0 n (%) | Vomiting (200 mg BID, n=6, All grades): 0 n (%) | Alanine aminotransferase increased (200 mg BID, n=6, Grade ≥3): 0 n (%) | Aspartate aminotransferase increased (200 mg BID, n=6, Grade ≥3): 0 n (%) | Asthenia (200 mg BID, n=6, Grade ≥3): 0 n (%) | Blood creatinine increased (200 mg BID, n=6, Grade ≥3): 0 n (%) | Constipation (200 mg BID, n=6, Grade ≥3): 0 n (%) | Diarrhoea (200 mg BID, n=6, Grade ≥3): 0 n (%) | Dry skin (200 mg BID, n=6, Grade ≥3): 0 n (%) | Fatigue (200 mg BID, n=6, Grade ≥3): 0 n (%) | Hypotension (200 mg BID, n=6, Grade ≥3): 0 n (%) | Nausea (200 mg BID, n=6, Grade ≥3): 0 n (%) | Number of patients with ≥1 adverse event (200 mg BID, n=6, Grade ≥3): 0 n (%) | Rash (200 mg BID, n=6, Grade ≥3): 0 n (%) | Vomiting (200 mg BID, n=6, Grade ≥3): 0 n (%) | Alanine aminotransferase increased [1]: 5 (27.8) n (%) | Aspartate aminotransferase increased [1]: 3 (16.7) n (%) | Asthenia [1]: 4 (22.2) n (%) | Blood creatinine increased [1]: 2 (11.1) n (%) | Constipation [1]: 1 (5.6) n (%) | Diarrhoea [1]: 11 (61.1) n (%) | Dry skin [1]: 4 (22.2) n (%) | Fatigue [1]: 3 (16.7) n (%) | Hypotension [1]: 3 (16.7) n (%) | Nausea [1]: 14 (77.8) n (%) | Number of patients with ≥1 adverse event [1]: 17 (94.4) n (%) | Rash [1]: 4 (22.2) n (%) | Vomiting [1]: 7 (38.9) n (%) | Alanine aminotransferase increased [2]: 1 (5.6) n (%) | Aspartate aminotransferase increased [2]: 1 (5.6) n (%) | Asthenia [2]: 0 n (%) | Blood creatinine increased [2]: 0 n (%) | Constipation [2]: 0 n (%) | Diarrhoea [2]: 1 (5.6) n (%) | Dry skin [2]: 0 n (%) | Fatigue [2]: 0 n (%) | Hypotension [2]: 0 n (%) | Nausea [2]: 0 n (%) | Number of patients with ≥1 adverse event [2]: 2 (11.1) n (%) | Rash [2]: 0 n (%) | Vomiting [2]: 0 n (%) | Alanine aminotransferase increased (400 mg BID, n=6, All grades): 3 (50.0) n (%) | Aspartate aminotransferase increased (400 mg BID, n=6, All grades): 3 (50.0) n (%) | Asthenia (400 mg BID, n=6, All grades): 2 (33.3) n (%) | Blood creatinine increased (400 mg BID, n=6, All grades): 0 n (%) | Constipation (400 mg BID, n=6, All grades): 2 (33.3) n (%) | Diarrhoea (400 mg BID, n=6, All grades): 3 (50.0) n (%) | Dry skin (400 mg BID, n=6, All grades): 1 (16.7) n (%) | Fatigue (400 mg BID, n=6, All grades): 1 (16.7) n (%) | Hypotension (400 mg BID, n=6, All grades): 4 (66.7) n (%) | Nausea (400 mg BID, n=6, All grades): 3 (50.0) n (%) | Number of patients with ≥1 adverse event (400 mg BID, n=6, All grades): 6 (100) n (%) | Rash (400 mg BID, n=6, All grades): 1 (16.7) n (%) | Vomiting (400 mg BID, n=6, All grades): 2 (33.3) n (%) | Alanine aminotransferase increased (400 mg BID, n=6, Grade ≥3): 1 (16.7) n (%) | Aspartate aminotransferase increased (400 mg BID, n=6, Grade ≥3): 1 (16.7) n (%) | Asthenia (400 mg BID, n=6, Grade ≥3): 0 n (%) | Blood creatinine increased (400 mg BID, n=6, Grade ≥3): 0 n (%) | Constipation (400 mg BID, n=6, Grade ≥3): 0 n (%) | Diarrhoea (400 mg BID, n=6, Grade ≥3): 0 n (%) | Dry skin (400 mg BID, n=6, Grade ≥3): 0 n (%) | Fatigue (400 mg BID, n=6, Grade ≥3): 0 n (%) | Hypotension (400 mg BID, n=6, Grade ≥3): 1 (16.7) n (%) | Nausea (400 mg BID, n=6, Grade ≥3): 0 n (%) | Number of patients with ≥1 adverse event (400 mg BID, n=6, Grade ≥3): 4 (66.7) n (%) | Rash (400 mg BID, n=6, Grade ≥3): 0 n (%) | Vomiting (400 mg BID, n=6, Grade ≥3): 0 n (%) | Alanine aminotransferase increased [3]: 8 (26.7) n (%) | Aspartate aminotransferase increased [3]: 6 (20.0) n (%) | Asthenia [3]: 7 (23.3) n (%) | Blood creatinine increased [3]: 5 (16.7) n (%) | Constipation [3]: 3 (10.0) n (%) | Diarrhoea [3]: 16 (53.3) n (%) | Dry skin [3]: 6 (20.0) n (%) | Fatigue [3]: 4 (13.3) n (%) | Hypotension [3]: 7 (23.3) n (%) | Nausea [3]: 19 (63.3) n (%) | Number of patients with ≥1 adverse event [3]: 28 (93.3) n (%) | Rash [3]: 5 (16.7) n (%) | Vomiting [3]: 9 (30.0) n (%) | Alanine aminotransferase increased [4]: 2 (6.7) n (%) | Aspartate aminotransferase increased [4]: 2 (6.7) n (%) | Asthenia [4]: 0 n (%) | Blood creatinine increased [4]: 0 n (%) | Constipation [4]: 0 n (%) | Diarrhoea [4]: 1 (3.3) n (%) | Dry skin [4]: 0 n (%) | Fatigue [4]: 0 n (%) | Hypotension [4]: 1 (3.3) n (%) | Nausea [4]: 0 n (%) | Number of patients with ≥1 adverse event [4]: 6 (20.0) n (%) | Rash [4]: 0 n (%) | Vomiting [4]: 0 n (%) | Alanine aminotransferase increased [5]: 15 (22.1) n (%) | Aspartate aminotransferase increased [5]: 11 (16.2) n (%) | Asthenia [5]: 13 (19.1) n (%) | Blood creatinine increased [5]: 7 (10.3) n (%) | Constipation [5]: 7 (10.3) n (%) | Diarrhoea [5]: 31 (45.6) n (%) | Dry skin [5]: 8 (11.8) n (%) | Fatigue [5]: 14 (20.6) n (%) | Hypotension [5]: 15 (22.1) n (%) | Nausea [5]: 45 (66.2) n (%) | Number of patients with ≥1 adverse event [5]: 63 (92.6) n (%) | Rash [5]: 8 (11.8) n (%) | Vomiting [5]: 21 (30.9) n (%) | Alanine aminotransferase increased [6]: 4 (5.9) n (%) | Aspartate aminotransferase increased [6]: 4 (5.9) n (%) | Asthenia [6]: 0 n (%) | Blood creatinine increased [6]: 0 n (%) | Constipation [6]: 0 n (%) | Diarrhoea [6]: 1 (1.5) n (%) | Dry skin [6]: 0 n (%) | Fatigue [6]: 0 n (%) | Hypotension [6]: 6 (8.8) n (%) | Nausea [6]: 1 (1.5) n (%) | Number of patients with ≥1 adverse event [6]: 17 (25.0) n (%) | Rash [6]: 0 n (%) | Vomiting [6]: 1 (1.5) n (%)
